From patent publication US20090181986A1, “SUBSTITUTED HETEROCYCLIC COMPOUNDS” (priority 2007, published 2009)

Target: hERG potassium channel (Homo sapiens, UniProt Q12809)
Test: hERG screening assay (PatchXpress patch clamp, CHO cells)
Protocol: Compounds were screened to test their activity in blocking the hERG potassium channel. The hERG channel is heterologously expressed in a CHO (Chinese Hamster Ovary) cell line. Cells are maintained with standard tissue culture procedures and stable channel expression is maintained with 500 μg/ml G418 in the culture medium. Cells are harvested for testing on the PatchXpress automated patch clamp with Acctumax (Innovative Cell Technologies, San Diego, Calif.) to isolate single cells.
The following solutions are used for electrophysiological recordings. The external solution contains: 2 mM CaCl2; 2 mM MgCl2; 4 mM KCl; 150 mM NaCl; 10 mM Glucose; 10 mM HEPES (pH 7.4 with 1M NaOH, osmolarity).
hERG channels are activated when the voltage is stepped to +20 mV from the −80 mV holding potential (see FIG. 3). During a 5 second step at +20 mV, the channels activate and then largely inactivate, so the currents are relatively small. Upon returning to −50 mV from +20 mV, hERG currents transiently become much larger as inactivation is rapidly removed and then the channel closes. The first step to −50 mV for 300 ms is used as a baseline for measuring the peak amplitude during the step to −50 mV after channel activation. The peak current at −50 mV is measured both under control conditions and after addition of compound.
All compounds are prepared as 10 mM DMSO stocks in glass vials. Stock solutions are mixed by vigorous vortexing and sonication for about 2 minutes at room temperature. For testing, compounds are diluted in glass vials using an intermediate dilution step in pure DMSO and then further diluted to working concentrations in external solution. Dilutions are prepared no longer than 20 minutes before use.
After achieving the whole-cell configuration, cells are monitored for 90 seconds to assess stability and washed with external solution for 66 seconds. The voltage protocol described above is then applied to the cells every 12 seconds and throughout the whole procedure. Only cells with stable recording parameters and meeting specified health criteria are allowed to enter the compound addition procedure.
External solution containing 0.1% DMSO (vehicle) is applied to the cells first to establish the control peak current amplitude. After allowing the current to stabilize for 3 to 5 minutes, 1 μM and then 10 μM test compounds are applied. Each compound concentration is added 4 times and cells are kept in test solution until the effect of the compound reaches steady state or for a maximum of 12 minutes. […] Washout in the external solution compartment is performed until the recovery of the current reaches steady state. Data are analyzed using DataXpress, Clampfit (Molecular Devices, Inc., Sunnyvale) and Origin 7 (Originlab Corp.)

Sequence of hERG potassium channel (Q12809 whole entry): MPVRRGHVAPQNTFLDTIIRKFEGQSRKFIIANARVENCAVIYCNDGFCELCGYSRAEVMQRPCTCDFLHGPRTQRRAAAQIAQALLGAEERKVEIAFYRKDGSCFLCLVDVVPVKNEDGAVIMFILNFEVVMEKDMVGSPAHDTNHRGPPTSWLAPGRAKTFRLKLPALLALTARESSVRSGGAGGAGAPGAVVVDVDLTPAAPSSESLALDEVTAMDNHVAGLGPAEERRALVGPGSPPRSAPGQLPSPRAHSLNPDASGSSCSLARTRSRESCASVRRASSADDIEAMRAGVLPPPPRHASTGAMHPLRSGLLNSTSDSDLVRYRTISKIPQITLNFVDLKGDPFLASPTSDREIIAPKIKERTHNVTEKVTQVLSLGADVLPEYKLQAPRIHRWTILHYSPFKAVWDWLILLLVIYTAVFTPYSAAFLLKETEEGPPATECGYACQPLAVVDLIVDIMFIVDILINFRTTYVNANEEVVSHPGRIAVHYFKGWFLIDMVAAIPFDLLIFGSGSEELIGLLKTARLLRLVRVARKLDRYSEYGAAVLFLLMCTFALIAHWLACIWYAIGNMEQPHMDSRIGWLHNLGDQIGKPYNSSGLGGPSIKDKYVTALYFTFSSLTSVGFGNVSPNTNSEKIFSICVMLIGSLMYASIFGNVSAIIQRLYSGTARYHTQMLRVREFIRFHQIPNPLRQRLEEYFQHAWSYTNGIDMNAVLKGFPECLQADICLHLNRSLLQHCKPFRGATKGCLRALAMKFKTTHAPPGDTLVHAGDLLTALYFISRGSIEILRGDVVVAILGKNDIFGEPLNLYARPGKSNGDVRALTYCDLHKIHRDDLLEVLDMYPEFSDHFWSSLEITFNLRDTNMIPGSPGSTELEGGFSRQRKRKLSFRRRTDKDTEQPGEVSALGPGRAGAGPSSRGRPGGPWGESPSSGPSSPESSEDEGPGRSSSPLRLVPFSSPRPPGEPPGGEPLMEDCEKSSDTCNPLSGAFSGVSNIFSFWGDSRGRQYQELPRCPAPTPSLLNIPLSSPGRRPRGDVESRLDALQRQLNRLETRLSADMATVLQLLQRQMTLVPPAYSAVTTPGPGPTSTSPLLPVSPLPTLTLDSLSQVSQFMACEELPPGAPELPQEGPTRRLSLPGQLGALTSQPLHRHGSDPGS

Compound | hERG Patch Clamp hERG % blk (1 μM test cmpd) [%] | hERG Patch Clamp hERG % blk (10 μM test cmpd) [%]
CC1=C(C(=O)OC(c2ccccc2)C2CC2)C(c2cccc3ccccc23)n2nnnc2N1 (stereo not drawn) [PT-002, cyclopropyl(phenyl)methyl 5-methyl-7-(naphthalen-1-yl)-4,7-dihydrotetrazolo[1,5-a]pyrimidine-6-carboxylate] | 11.5 | 28
CCOC(=O)C1=C(CC)Nc2nnnn2C1c1cccc2ccccc12 (stereo not drawn) [PT-010, ethyl 5-ethyl-7-(naphthalen-1-yl)-4,7-dihydrotetrazolo[1,5-a]pyrimidine-6-carboxylate] | 12.5 | 30
CCOC(=O)C1=C(C)Nc2nnnn2C1c1csc2ccccc12 (stereo not drawn) [PT-017, ethyl 7-(benzo[b]thiophen-3-yl)-5-methyl-4,7-dihydrotetrazolo[1,5-a]pyrimidine-6-carboxylate] | 10 | 23.5
CCOC(=O)C1=C(C)Nc2nnnn2C1c1sc2ccccc2c1C (stereo not drawn) [PT-018, ethyl 5-methyl-7-(3-methylbenzo[b]thiophen-2-yl)-4,7-dihydrotetrazolo[1,5-a]pyrimidine-6-carboxylate] | 14.5 | 36.5
CCOC(=O)C1=C(C)Nc2nnnn2C1c1cc2ccccc2o1 (stereo not drawn) [PT-019, ethyl 7-(benzofuran-2-yl)-5-methyl-4,7-dihydrotetrazolo[1,5-a]pyrimidine-6-carboxylate] | 10 | 26
CC1=C(C(=O)OC(C)C)C(c2cccc3ccccc23)n2nnnc2N1 (stereo not drawn) [PT-021, isopropyl 5-methyl-7-(naphthalen-1-yl)-4,7-dihydrotetrazolo[1,5-a]pyrimidine-6-carboxylate] | 13 | 43.5
CC1=C(C(=O)OCc2ccccc2)C(c2ccccc2-c2ccccc2)n2nnnc2N1 (stereo not drawn) [PT-025, benzyl 7-(biphenyl-2-yl)-5-methyl-4,7-dihydrotetrazolo[1,5-a]pyrimidine-6-carboxylate] | 11 | 53
COc1ccc2ccccc2c1C1C(C(=O)OCc2ccccc2)=C(C)Nc2nnnn21 (stereo not drawn) [PT-030, benzyl 7-(2-methoxynaphthalen-1-yl)-5-methyl-4,7-dihydrotetrazolo[1,5-a]pyrimidine-6-carboxylate] | 10.5 | 34.5
CC1=C(C(=O)OCc2ccccc2)C(c2ccc(N(C)C)c3ccccc23)n2nnnc2N1 (stereo not drawn) [PT-032, benzyl 7-(4-(dimethylamino)naphthalen-1-yl)-5-methyl-4,7-dihydrotetrazolo[1,5-a]pyrimidine-6-carboxylate] | 19 | 50.5
CC1=C(C(=O)OCc2ccccc2)C(c2cccc3c2OCO3)n2nnnc2N1 (stereo not drawn) [PT-034, benzyl 7-(benzo[d][1,3]dioxol-4-yl)-5-methyl-4,7-dihydrotetrazolo[1,5-a]pyrimidine-6-carboxylate] | 14.5 | 56
CC1=C(C(=O)O[C@@H](C)c2ccccc2)[C@@H](c2cccc3ccccc23)n2nnnc2N1 [PT-050, (R)-((S)-1-phenylethyl) 5-methyl-7-(naphthalen-1-yl)-4,7-dihydrotetrazolo[1,5-a]pyrimidine-6-carboxylate] | 10 | 53.5
COc1ccc(COC(=O)C2=C(C)Nc3nnnn3C2c2cccc3ccccc23)cc1OC (stereo not drawn) [PT-061, 3,4-dimethoxybenzyl 5-methyl-7-(naphthalen-1-yl)-4,7-dihydrotetrazolo[1,5-a]pyrimidine-6-carboxylate] | 24 | 46.5
